Test [1] concerns BV2 microglial cells. The test can be described thus: LPS-induced IL-6 release by BV2 microglia cell cultures (ELISA). The test is classed as cell-based, murine. The conditions noted are these: for IC50: Mus musculus. The protocol: The BV2 murine microglial cell line is used in these studies.
The BV2 cells are cultured at 37° C. in a humidified atmosphere with 5% CO2 in high D-glucose (4.5 g/L) Dulbecco’s modified Eagle’s medium (Sigma, Rehovot, Israel) supplemented with 5% heat-inactivated fetal bovine serum, streptomycin (100 µg/ml), and penicillin (100 units/ml) and sodium pyruvate (1 mM; all from Biological Industries Ltd., Kibbutz Beit Haemek, Israel). 24 hours before experiments with LPS stimulation, the BV2 cells are split into 24 well plates, 2×10^5 cells per well, covered with 1 ml of growth medium and allowed to attach overnight. 24 hr before experiments with α-synuclein, the BV2 cells are split into 96-well plates, 50,000 (5×10^4) cells per well, covered with 200 µl of growth medium and allowed to attach overnight. Cultures of BV2 microglia cells are first treated by an individual cannabinoid, or terpene or flavonoid selected from: Cannabidiol (CBD), Δ-9-tetrahydrocannabinol (THC), Δ-8-tetrahydrocannabinol (THC), cannabigerol (CBG), cannabichromene (CBC), cannabigerolic acid (CBGA), Cannabidiolic acid (CBDA), THC acid (THCA), cannabichromenic Acid (CBCA), Cannabidivarin (CBDV), tetrahydrocannabivarin (THCV), Cannabichromevarin (CBCV), Cannabichromerocin ([…]), Cannabivarin (CBV), Cannabicitran (CBT), Cannabinol (CBN), Cannabicyclol (CBL), Cannabigerorcin (CBGO), Cannabinodiol (CBND), β-caryophyllene, β-elemene, β-myrcene, linalool, α-pinene, β-pinene, eucalyptol, alpha-terpineol, valencene, geraniol (lemonol), bisabolol, nerolidol, ocimene, terpinolene, humulene, α-terpinene, camphene, fenchol, α-phellandrene, Δ3-carene, γ-cardinene, sabinene, limonene, β-amyrin, cycloartenol, cannflavin A, cannflavin B, kaempferol, quercetin, luteolin, apigenin, canniprene, orientin, β-sitosterol, vitexin, isovitexin, and chrysin. Additional cultures of BV2 microglia cells are treated by an individual cannabinoid, with at least one additional cannabinoid, and/or terpene, and/or flavonoid, and/or celecoxib. Additional cultures are exposed to the vehicle of these compounds (cremophor, ethanol and PBS, 1:1:18 (v/v/v)) (FIG. 2A). In some studies, cultures of BV2 microglia cells are treated by a specific whole plant cannabis extract, with or without supplementation with cannabinoid(s), and/or terpene(s) and/or flavonoid(s), and/or celecoxib (FIG. 2B).
For each individual cannabinoid mentioned above, 3-4 concentrations are used, ranging from 0.1 to 10 µM. For ultra-low dose Δ9-THC the concentration used is 0.01 µM. For each individual terpene or flavonoid mentioned above, 3-4 concentrations are used, ranging from 1 to 50 µM. For celecoxib, 3-4 concentrations are used, ranging from 0.1 to 10 µM. Two hours following the treatment, the cultures are exposed to one of the following microglia stimulators: LPS (Sigma L2630; Escherichia coli serotype O111:B4) is dissolved in D-PBS (Sigma, D8537) to a pre-stock concentration of 1 mg/ml, aliquoted and stored at -80° C. Stock solution of LPS at 10 ug/ml is prepared using sterile D-PBS, followed by filtering via 0.22 µm filter membrane, aliquoting and storing in -20° C. LPS is applied into the cell medium at a final concentration of 100 ng/ml. Poly I:C (Sigma, P1530) was first dissolved in sterile, molecular grade water to the concentration of 10 mg/ml (following the manufacturer’s instructions). This stock solution was further diluted to the concentration of 1 mg/ml in sterile PBS, and the aliquots stored in -20 °C.
In general terms: ELISA stands for enzyme-linked immunosorbent assay.

Test [2] relates to BV2 microglial cells. The test can be described thus: Poly I:C-induced TNFα release by BV2 microglia. It is filed as cell-based, murine. The conditions noted are these: 5 and 10 µM. Here is the method: The BV2 cells are cultured at 37° C. in a humidified atmosphere with 5% CO2 in high D-glucose (4.5 g/L) Dulbecco’s modified Eagle’s medium (Sigma, Rehovot, Israel) supplemented with 5% heat-inactivated fetal bovine serum, streptomycin (100 µg/ml), and penicillin (100 units/ml) and sodium pyruvate (1 mM; all from Biological Industries Ltd., Kibbutz Beit Haemek, Israel). 24 hours before experiments with LPS stimulation, the BV2 cells are split into 24 well plates, 2×10^5 cells per well, covered with 1 ml of growth medium and allowed to attach overnight. 24 hr before experiments with α-synuclein, the BV2 cells are split into 96-well plates, 50,000 (5×10^4) cells per well, covered with 200 µl of growth medium and allowed to attach overnight. […]

Data on one compound can be found in US20230270764A1, “COMPOSITION COMPRISING CANNABINOIDS, TERPENES, AND FLAVONOIDS FOR TREATING DEPRESSION” (priority 2020, published 2023).

The term IC50 denotes the concentration needed to halve the response being measured.

Read-outs that look alike come from different tables or passages of the source.

Consider `C=C(C)[C@@H]1CCC(C)=C[C@H]1c1c(O)cc(CCCCC)cc1O` [CBD, cannabidiol], for which the “release of IL-6” value in the test on BV2 microglial cells [1] (Example 3, 10 µM) is recorded as “significantly inhibited”. Also, the “IL-6 secretion vs Veh plus LPS” value in the test with BV2 microglial cells [1] (Example 6, CBD or CBDV given by themselves) is recorded as “no significant effect”. Moreover, the “LPS-induced IL-6 release” value in the test with BV2 microglial cells [1] (Example 25, CBD, CannA, CannB 5 and 10 µM, CannC 10 µM) is reported as “significantly decreased”. The IC50 with BV2 microglial cells [1] (BV-2, Example 6 (FIG. 7D), by itself, read-out: IC50 for inhibiting LPS-induced IL-6 release) was 4.3 µM; in the test on BV2 microglial cells [1] (BV-2, Example 6, addition of 1 µM CBDV, read-out: CBD IC50, LPS-induced IL-6 release), 3.1 µM; in the test on BV2 microglial cells [1] (BV-2, Example 6, addition of 2.5 µM CBDV, read-out: CBD IC50, LPS-induced IL-6 release) it was 2 µM; with BV2 microglial cells [1] (BV-2, Example 6, addition of 5 µM CBDV, read-out: CBD IC50, LPS-induced IL-6 release), 1.7 µM; in the test with BV2 microglial cells [1] (BV-2, Example 25 (FIG. 25E), extracts calculated on dominant cannabinoid, read-out: IC50 for IL-6 inhibition), 5.9 µM. In addition, in the test on BV2 microglial cells [2], the “Poly I:C-induced TNFα release” value is listed as “significantly decreased”.
